Entries after “also recorded” stand apart in the source; their conditions may differ. Like-named read-outs stand apart in the source and are kept apart here.
Key:
MAO-B = conditions: cited from earlier work
MAO-A = conditions: Figure 1, cited from earlier work
[1] = system: immobility in forced swim test; test: Forced swim test, acute treatment; conditions: 1 and 10 mg/kg p.o.; for Immobility time in forced-swim test: versus control group
[2] = system: PGE2 production in LPS-induced BV2 cells; test: Inhibition of LPS-induced production of PGE2 in BV2 cells; type: cell-based, murine; conditions: LPS 500 ng/ml
Procedure: indicated concentrations of test compounds for 24 h. After replacing the culture media with fresh
2.3.2. Inhibition of LPS-induced production of PGE2
The concentrations of PGE2 in
Sciences, NY, USA) according to the manufacturer’s instructions. […]

recombinant human MAO-B = target: T1, recombinant human MAO-B (Homo sapiens, UniProt P27338); test: biochemical; conditions: for inhibition at 10 µM: single dose concentration of 10 µM; for inhibition at 10 µM / IC50: ±sem; for IC50: five doses
T1 construct: purchased Sigma Aldrich
T1 sequence (P27338 1-520): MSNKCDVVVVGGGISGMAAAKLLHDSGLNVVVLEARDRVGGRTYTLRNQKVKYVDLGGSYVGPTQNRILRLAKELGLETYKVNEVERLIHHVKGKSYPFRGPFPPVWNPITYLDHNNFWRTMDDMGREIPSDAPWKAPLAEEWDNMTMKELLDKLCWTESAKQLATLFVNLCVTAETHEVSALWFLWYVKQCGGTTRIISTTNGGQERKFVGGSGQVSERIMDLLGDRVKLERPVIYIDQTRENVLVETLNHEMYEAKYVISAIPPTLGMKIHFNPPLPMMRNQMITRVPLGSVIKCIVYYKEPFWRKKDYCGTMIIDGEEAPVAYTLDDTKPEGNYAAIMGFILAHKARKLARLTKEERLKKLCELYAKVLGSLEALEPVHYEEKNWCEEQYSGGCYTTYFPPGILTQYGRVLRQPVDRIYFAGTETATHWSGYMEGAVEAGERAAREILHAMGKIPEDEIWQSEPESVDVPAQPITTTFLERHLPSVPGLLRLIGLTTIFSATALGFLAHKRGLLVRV

recombinant human MAO-A = target: T2, recombinant human MAO-A (Homo sapiens, UniProt P21397); test: Monoamine oxidase-A inhibition assay (Amplex red fluorescence); type: biochemical; conditions: for inhibition at 1 µM: read-out: % Inhibition MAO-A; for inhibition at 100 µM: read-out: MAO-A % Inhibition
T2 sequence (P21397 1-527): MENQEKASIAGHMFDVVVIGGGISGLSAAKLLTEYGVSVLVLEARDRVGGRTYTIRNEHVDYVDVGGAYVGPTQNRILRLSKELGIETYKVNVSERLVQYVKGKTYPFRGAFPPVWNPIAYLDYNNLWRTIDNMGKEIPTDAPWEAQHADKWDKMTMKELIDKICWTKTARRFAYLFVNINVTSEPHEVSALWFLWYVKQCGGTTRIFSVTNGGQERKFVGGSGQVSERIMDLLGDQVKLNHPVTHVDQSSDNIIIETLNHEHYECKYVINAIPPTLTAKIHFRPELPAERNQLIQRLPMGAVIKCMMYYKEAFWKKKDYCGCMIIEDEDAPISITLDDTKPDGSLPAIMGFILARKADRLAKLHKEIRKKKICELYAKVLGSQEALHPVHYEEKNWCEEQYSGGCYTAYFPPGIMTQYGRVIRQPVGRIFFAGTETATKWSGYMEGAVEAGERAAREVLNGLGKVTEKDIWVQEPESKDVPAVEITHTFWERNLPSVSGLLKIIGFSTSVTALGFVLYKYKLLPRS
Procedure: Two isoforms of MAOs, namely MAO-A and MAO-B, are expressed in CNS, showing different substrate specificity. Consequently, different pharmacological effects can be elicited depending on the inhibited MAO isoform. Therefore, the prepared O^6-aminoalkyl-hispidol analogs were evaluated against both recombinant human MAO-A and MAO-B isoforms following the well-established spectrophotometric method.
2. Biological evaluations
2.1. In vitro assay of human monoamine oxidases inhibition
The MAO activity was quantified by measuring fluorescence intensity evoked by Amplex red reaction in which Amplex red reacts with hydrogen peroxide from the MAO reaction to produce highly fluorescent resorufin. The test compound in DMSO (final concentration: 1 nM – 10 μM or 10 nM – 100 μM ) and hMAO enzyme (Sigma Aldrich, St. Louis, MO, USA) in 50 mM sodium phosphate buffer (pH 7.4, final protein amount: ~1.25 μg of MAO-A/well and 2.5 μg of MAO-B/well) were loaded on 96-well black plate and incubated for 15 min at 37 °C. Then working solution of 200 μM Amplex Red (Cayman, Ann Arbor, MI, USA), 1 U/mL horseradish peroxidase (Sigma-Aldrich) and 1 mM substrate (p-tyramine for MAO-A, benzylamine for MAO-B, Sigma-Aldrich) in 50 mM sodium phosphate buffer (pH 7.4) was added and incubated for 20 min at 37 °C in the dark. The fluorescence was measured using a microplate reader (SpectraMax®i3, Molecular Device, San Jose, CA, USA) with an excitation at 545 nm and an emission at 590 nm. […]
(§1) of compounds were determined as the mean ± S.E.M. in triplicate from the dose-response inhibition curves using SigmaPlot® 13.0.

[3] = system: scopolamine-induced cognitive deficits; test: Passive avoidance test, scopolamine-induced cognitive deficits; type: in vivo; conditions: scopolamine 1 mg/kg i.p., mice
[4] = target: T3, acetylcholinesterase (AChE) (Mus musculus, UniProt P21836); test: Acetylcholinesterase inhibition assay (Ellman, mouse whole brain homogenate); type: biochemical; conditions: for IC50: ±SD
T3 construct: The supernatant obtained was used as a source of enzyme for; from tissue; host or cells: whole brain of male ICR mice, supernatant of the homogenate
T3 sequence (P21836 32-614): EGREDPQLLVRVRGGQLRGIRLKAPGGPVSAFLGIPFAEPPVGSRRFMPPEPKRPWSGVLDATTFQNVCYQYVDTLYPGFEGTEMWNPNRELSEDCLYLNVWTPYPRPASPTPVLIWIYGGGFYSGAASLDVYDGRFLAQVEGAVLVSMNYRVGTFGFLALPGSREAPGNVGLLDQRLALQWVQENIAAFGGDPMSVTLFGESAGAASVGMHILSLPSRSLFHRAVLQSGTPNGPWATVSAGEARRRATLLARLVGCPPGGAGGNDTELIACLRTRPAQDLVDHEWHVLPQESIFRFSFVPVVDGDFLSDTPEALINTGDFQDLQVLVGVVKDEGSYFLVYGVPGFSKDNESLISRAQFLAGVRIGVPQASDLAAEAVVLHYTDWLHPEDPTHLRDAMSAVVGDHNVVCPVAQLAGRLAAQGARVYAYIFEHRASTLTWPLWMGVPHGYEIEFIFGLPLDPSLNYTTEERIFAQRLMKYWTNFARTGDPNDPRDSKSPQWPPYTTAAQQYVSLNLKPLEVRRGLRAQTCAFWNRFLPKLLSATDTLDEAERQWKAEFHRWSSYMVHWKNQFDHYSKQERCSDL
Procedure: as §1
2.2. In vitro acetylcholinesterase inhibition assay
(Eyela, Japan) containing 50 volumes of phosphate buffer (pH 8.0, 0.1 M), and then centrifuged at 14,000 rpm for 20 min at 4 °C. The supernatant obtained was used as a source of enzyme for the assay. Each drug was initially dissolved in dimethyl sulfoxide (DMSO) and diluted to various concentrations immediately before use. An aliquot of diluted drug solution was then mixed wit h 640 μL of phosphate buffer (0.1 M, pH 8.0), 25 μL of buffered Ellman’s reagent (10 mM 5,5′- dithio-bis(2-nitrobenzoic acid) and 15 mM sodium bicarbonate), and the enzyme source (100 μL) and pre-incubated at room temperature for 10 min. Then 5 μL of acetylthiocholine iodide solution (75 mM) was added to this mixture and mixed. Absorbance was measured at 410 nm after 10 min for the reaction adding 5 μL of acetylthiocholine iodide solution (75 mM) and to the reaction mixtures (OPTIZEN 2120UV, Mecasys Co. Ltd, Korea).

AChE = system: AChE; parameters: method as in PMID 31891098; conditions: chromone-based compound 1, Figure 1; cited from earlier work
microglial BV2 cells = test: BV2 cell viability (WST-1 assay); conditions: up to 10 micromolar, in presence of LPS, 24 h
Procedure: 2.3. In vitro cellular evaluations
2.3.1. Cell culture and viability determination
Murine BV2 microglial cells obtained from the Korean Cell Line Bank (Seoul, Republic of Korea) were cultured in DMEM with 10% FBS, 100 U/ml penicillin, and 100 μg/ml streptomycin at 37°C in a humidified 5% CO2 atmosphere. Cell viability and toxicity were determined by the WST-1 assay (Roche, Mannheim, Germany). Briefly, BV2 cells in sterile plates were incubated with the […]

[5] = 10 mg/kg p.o., donepezil 5 mg/kg p.o. as comparator

In the case of `COc1ccc(/C=C2\Oc3cc(O)ccc3C2=O)c(OC)c1OC` [Hispidol Analog], the IC50 (MAO-B; ring-B methoxylated hispidol analog, Figure 1) is given as 0.17 µM and the IC50 (MAO-A; ring-B methoxylated hispidol analog) is given as greater than 100 µM.
For `CCN(CC)CCOc1ccc2c(c1)O/C(=C\c1ccccc1OC)C2=O` [Compound 3aa], the “Antidepressant-like effect in forced-swim test” value [1] was “did not show antidepressant-like effects”, the “Immobility time in forced-swim test” value [1] was “significantly increased immobility time” and the “LPS-induced PGE2 production in BV2 cells” value ([2]; 10 micromolar dose) was “returned to almost normal levels”. The “LPS-induced PGE2 production in BV2 cells” value ([2]; five micromolar concentration) was “attrition of the inhibitory effect”, the “MAO-B Selectivity Index” value (recombinant human MAO-B; calculated from MAO-A and MAO-B IC50 values) was greater than 104 and the inhibition at 10 µM (recombinant human MAO-B) was 91.49 ± 0.27%. The IC50 (recombinant human MAO-B) was 0.96 ± 0.004 µM, the inhibition at 1 µM (recombinant human MAO-A; single dose concentration of 1 µM, ±sem, NI = no measured inhibition) was less than 0% and the inhibition at 100 µM (recombinant human MAO-A; single dose concentration of 100 µM, ±sem) was 27.2 ± 2.94%. For the same compound, the IC50 (recombinant human MAO-A; ±sem, read-out: MAO-A IC50) was greater than 100 µM, the “Latency in the retention experiment, passive avoidance” value (“Latency in the retention experiment” for short) ([3]; 1 mg/kg p.o.) was “did not show significant amelioration of cognitive deficits” and the “Latency in the retention experiment” value [3, 5] was “did not show significant amelioration of cognitive deficits”. For the same compound, the “AChE potency relative to the reference galantamine” value ([4]; ratio of potency) was roughly 1.8 times and the IC50 [4] was 2.67 ± 0.05 µM.
In the case of `O=c1ccoc2ccc(OCCCN3CCCCC3)cc12` [Compound 1], the IC50 (MAO-B; chromone-based compound 1, Figure 1) is listed as 7.2 µM and the IC50 (AChE) is listed as 5.58 µM.
For `COc1cc(/C=C2\Oc3cc(OCCN4CCCC4)ccc3C2=O)cc(OC)c1OC` [Compound 3bc], the “Antidepressant-like effect in forced-swim test” value [1] was “did not show antidepressant-like effects”, the “Immobility time in forced-swim test” value [1] was “significantly increased immobility time” and the “LPS-induced PGE2 production in BV2 cells” value ([2]; 10 micromolar dose) was “returned to almost normal levels”. For the same compound, the “LPS-induced PGE2 production in BV2 cells” value ([2]; five micromolar concentration) was “normal PGE2 production level”, the inhibition at 10 µM (recombinant human MAO-B) was 99.3 ± 0.38% and the IC50 (recombinant human MAO-B) was 0.34 ± 0.002 µM. It also gave an IC50 (recombinant human MAO-A) greater than 100 µM, an inhibition at 1 µM (recombinant human MAO-A) of less than 0% and an inhibition at 100 µM (recombinant human MAO-A) of 21.4 ± 3.51%. For the same compound, the “Latency in the retention experiment” value ([3]; 1 mg/kg p.o.) was “significantly enhanced latency”, the “Latency in the retention experiment” value [3, 5] was “significantly enhanced latency; also recorded: as effective as donepezil” and the “Cellular viability of microglial BV2 cells” value (microglial BV2 cells) was “absence of cytotoxic activity”.
In the case of `O=C1/C(=C/c2ccc(O)cc2)Oc2cc(O)ccc21` [Hispidol, hispidol], the IC50 (MAO-B; reported value for hispidol) is given as 2.45 µM, the IC50 (MAO-A; reported value for hispidol) is given as 0.26 µM and the IC50 [4] is given as 202 µM.
